Experimental data as given in patent US10144715B2, “Piperazine derivatives as liver X receptor modulators” (priority 2014, dated 2018).
Read-outs that look alike come from different tables or passages of the source.

Tests used:
[1] = target: Gal4 DNA binding domain fused to the LBD of LXRα in HEK293 cells (Homo sapiens (Human), UniProt Q13133); test: LXR luciferase transcriptional reporter gene assay, agonist mode, LXRα; assay type: cell-based; details: for EC50: read-out: Cell LXRα EC50
[2] = target: LXR α LBD protein (Homo sapiens (Human), UniProt Q13133); test: Human LXRα coactivator recruitment FRET assay, agonist mode; assay type: biochemical; details: agonist mode
Protocol: Two μL of the DMSO solutions were transferred to the plate and 38 μL of 10 nM LXRα-LBD or LXRβ-LBD (2×) were added immediately to the wells. The plate was shaken for 5 min at rt on an orbital micro shaker (DPC MicroMix® 5), after which 40 μL of 200 nM fluorescein-SRC2-3 peptide and 20 nM Terbium-anti-GST-antibody (Cat# PV3550, Life Technologies, Grand Island, N.Y.) solution (4×) were added to all. The plate was sealed and shaken for 2 min at rt, and incubated at rt for 2 h without agitation. […] The delay and window times were set at 100 and 200 microseconds, respectively. […] The percent control vs. compound concentration data were fit into a four-parameter model, and EC50 values were calculated from the fit as the concentrations corresponding to the inflection points on the concentration-response curves.

LXR α LBD protein, sequence (Q13133 209-447): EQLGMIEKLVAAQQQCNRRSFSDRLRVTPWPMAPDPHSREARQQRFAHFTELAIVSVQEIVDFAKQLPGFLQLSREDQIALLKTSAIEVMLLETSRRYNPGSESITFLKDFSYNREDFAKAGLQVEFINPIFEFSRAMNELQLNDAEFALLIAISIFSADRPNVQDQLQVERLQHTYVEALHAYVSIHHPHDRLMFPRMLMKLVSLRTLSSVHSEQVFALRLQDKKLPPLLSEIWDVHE
Gal4 DNA binding domain fused to the LBD of LXRα in HEK293 cells, sequence (Q13133 209-447): as above

Row | Structure (SMILES) | EC50 [1] | EC50 [2] | Cell LXRα efficacy [1] | EC50 ([1]; agonist mode) | FRET LXRα efficacy [2]
1 | CC(C)(C)OC(=O)N1CCN(c2cccc(S(C)(=O)=O)c2)C[C@H]1C(C)(C)O [6-1, tert-butyl (S)-2-(2-hydroxypropan-2-yl)-4-(3-(methylsulfonyl)phenyl)piperazine-1-carboxylate] | > 20 µM | > 50 µM |  |  | 
2 | COC(=O)c1cnc(N2CCN(c3cccc(S(C)(=O)=O)c3)C[C@H]2C(C)C)nc1 [7-9, methyl (R)-2-(2-isopropyl-4-(3-(methylsulfonyl)phenyl)piperazin-1-yl)pyrimidine-5-carboxylate] |  | 0.48 µM | 3532 (36) % | 3.53 µM | 57%
3 | CC(C)(C)C1CN(c2ccc(F)c(S(C)(=O)=O)c2)CCN1c1nccc(C(F)(F)F)n1 (centres unmarked) [7-29, 2-(2-(tert-butyl)-4-(4-fluoro-3-(methylsulfonyl)phenyl)piperazin-1-yl)-4-(trifluoromethyl)pyrimidine] |  | 0.161 µM | 150 (92) % | 0.15 µM | 101%
4 | CC(C)[C@@H]1CN(c2ccc(C#N)c(S(C)(=O)=O)c2)CCN1c1ccc(C(F)(F)F)cn1 [7-37, (R)-4-(3-isopropyl-4-(5-(trifluoromethyl)pyridin-2-yl)piperazin-1-yl)-2-(methylsulfonyl)benzonitrile] |  | 2.64 µM | 1702 (96) % | 1.7 µM | 220%
5 | CC(C)[C@@H]1CN(c2ccc(C#N)c(S(C)(=O)=O)c2)CCN1c1cccc(C(F)(F)F)n1 [7-38, (R)-4-(3-isopropyl-4-(6-(trifluoromethyl)pyridin-2-yl)piperazin-1-yl)-2-(methylsulfonyl)benzonitrile] |  | 3.15 µM | 2960 (86) % | 2.96 µM | 204%
6 | CC(C)[C@@H]1CN(c2ccc(C#N)c(S(C)(=O)=O)c2)CCN1c1cc(C(F)(F)F)ccn1 [7-39, (R)-4-(3-isopropyl-4-(4-(trifluoromethyl)pyridin-2-yl)piperazin-1-yl)-2-(methylsulfonyl)benzonitrile] |  | 1.43 µM | 1502 (80) % | 1.5 µM | 191%
7 | CS(=O)(=O)c1cccc(N2CCN(c3ccc(C(F)(F)F)cn3)[C@@H](c3ccccc3)C2)c1 [7-40, (S)-4-(3-(methylsulfonyl)phenyl)-2-phenyl-1-(5-(trifluoromethyl)pyridin-2-yl)piperazine] |  | 45.1 µM |  | > 20 µM | 70%
8 | CS(=O)(=O)c1cccc(N2CCN(Cc3ccccc3)C(c3ccccc3)C2)c1 (centres unmarked) [46-4, 1-benzyl-4-(3-(methylsulfonyl)phenyl)-2-phenylpiperazine] |  | 0.875 µM |  | > 20 µM | 41%
9 | CS(=O)(=O)c1cccc(N2CCN(Cc3cccc(C(F)(F)F)c3)C(c3ccccc3)C2)c1 (centres unmarked) [46-13, 4-(3-(methylsulfonyl)phenyl)-2-phenyl-1-(3-(trifluoromethyl)benzyl)piperazine] |  | 1.9 µM |  | > 20 µM | 28%
10 | CS(=O)(=O)c1cccc(N2CCN(Cc3ccc(C(F)(F)F)c(Cl)c3)[C@H](Cc3ccccc3)C2)c1 [46-33, (R)-2-benzyl-1-(3-chloro-4-(trifluoromethyl)benzyl)-4-(3-(methylsulfonyl)phenyl)piperazine] |  | 2.54 µM | 2354 (44) % | 2.35 µM | 37%
11 | Cc1ccc(CN2CCN(c3cccc(S(C)(=O)=O)c3)CC2c2ccccc2)cn1 (centres unmarked) [46-40, 1-((6-methylpyridin-3-yl)methyl)-4-(3-(methylsulfonyl)phenyl)-2-phenylpiperazine] |  | 4.12 µM |  | > 20 µM | 38%
12 | CC1(c2ccccc2)CN(c2cccc(S(C)(=O)=O)c2)CCN1Cc1ccc(C(F)(F)F)nc1 (centres unmarked) [46-49, 2-methyl-4-(3-(methylsulfonyl)phenyl)-2-phenyl-1-((6-(trifluoromethyl)pyridin-3-yl)methyl)piperazine] |  | 0.264 µM | 3237 (12) % | 3.24 µM | 10%
13 | CS(=O)(=O)c1cccc(N2CCN(Cc3ccc(C(F)(F)F)nc3)C(c3ccc(F)cc3)C2)c1 (centres unmarked) [46-51, 2-(4-fluorophenyl)-4-(3-(methylsulfonyl)phenyl)-1-((6-(trifluoromethyl)pyridin-3-yl)methyl)piperazine] |  | 2.3 µM | 3658 (17) % | 3.66 µM | 41%
14 | CS(=O)(=O)c1cc(N2CCN(Cc3ccc(C(F)(F)F)nc3)C(c3ccccc3)C2)ccc1F (centres unmarked) [46-52, 4-(4-fluoro-3-(methylsulfonyl)phenyl)-2-phenyl-1-((6-(trifluoromethyl)pyridin-3-yl)methyl)piperazine] |  | 5.2 µM | 11699 (17) % | 11.7 µM | 20%
15 | CS(=O)(=O)c1cccc(N2CCN(Cc3ccc(C(F)(F)F)nc3)C(c3ccc(Cl)cc3)C2)c1 (centres unmarked) [46-54, 2-(4-chlorophenyl)-4-(3-(methylsulfonyl)phenyl)-1-((6-(trifluoromethyl)pyridin-3-yl)methyl)piperazine] |  |  |  | > 20 µM | 49%
16 | CS(=O)(=O)c1cc(N2CCN(Cc3ccc(C(F)(F)F)nc3)C(c3ccccc3)C2)ccc1C(N)=O (centres unmarked) [46-58, 2-(methylsulfonyl)-4-(3-phenyl-4-((6-(trifluoromethyl)pyridin-3-yl)methyl)piperazin-1-yl)benzamide] |  | > 50 µM | 6986 (8) % | 6.99 µM | 
17 | CS(=O)(=O)c1cccc(N2CCN(Cc3ccc(C(F)(F)F)nc3)C(c3ccccc3Br)C2)c1 (centres unmarked) [46-60, 2-(2-bromophenyl)-4-(3-(methylsulfonyl)phenyl)-1-((6-(trifluoromethyl)pyridin-3-yl)methyl)piperazine] |  |  | 4383 (33) % | 4.38 µM | 39%
18 | CS(=O)(=O)c1cc(N2CCN(Cc3ccc(C(F)(F)F)c(Cl)c3)C(c3ccccc3)C2)ccc1CO (centres unmarked) [47-4, (4-(4-(3-chloro-4-(trifluoromethyl)benzyl)-3-phenylpiperazin-1-yl)-2-(methylsulfonyl)phenyl)methanol] |  | 0.224 µM | 914 (96) % | 0.914 µM | 109%
19 | CC(C)[C@@H]1CN(c2ccc(C#N)c(S(C)(=O)=O)c2)CCN1C(=O)OC(C)(C)C [Cpd No 3-1, tert-butyl (R)-4-(4-cyano-3-(methylsulfonyl)phenyl)-2-isopropylpiperazine-1-carboxylate] |  | 18 µM | 12810 (20) % | 12.8 µM | 76%
20 | CC(C)[C@@H]1CN(c2ccc(C(F)(F)F)c(S(C)(=O)=O)c2)CCN1C(=O)OC(C)(C)C [Cpd No 3-2, tert-butyl (R)-2-isopropyl-4-(3-(methylsulfonyl)-4-(trifluoromethyl)phenyl)piperazine-1-carboxylate] |  | 12 µM | 14412 (19) % | 14.4 µM | 54%
21 | Cc1cc(C)nc(N2CCN(c3cccc(S(C)(=O)=O)c3)C[C@H]2C(C)C)n1 [Cpd No 7-3, (R)-2-(2-isopropyl-4-(3-(methylsulfonyl)phenyl)piperazin-1-yl)-4,6-dimethylpyrimidine] |  | 0.51 µM | 7923 (24) % | 7.92 µM | 36%
